Measured values published in US20110263693A1, “CELASTROL, GEDUNIN, AND DERIVATIVES THEREOF AS HSP90 INHIBITORS” (DANA-FARBER CANCER INSTITUTE, INC., priority 2006, published 2011).
Read-outs that look alike come from different tables or passages of the source.

Legend:
celastrol signature = assay: Connectivity Map query with the celastrol signature; type: cell-based, human; set-up: key to celastrol score (connectivity score): connectivity score, based on Kolmogorov-Smirnov statistic
Text: (§1) Indeed, a major challenge in cell-based chemical biology and chemical genomics is the identification of compounds' targets (Gardner et al., 2003). We hypothesized that gene expression signatures could be used to identify compound action based on the similarity of such compound-induced signatures to signatures of existing drugs of known mechanism. We therefore employed a collection of gene expression profiles of drug-treated cell lines that was developed in our lab, termed the Connectivity Map (Lamb et al., 2006). This database comprises 453 genome-wide Affymetrix expression profiles derived from the treatment of human cell lines with 164 small molecules, primarily FDA-approved drugs. A 6 hr treatment time was chosen in an attempt to capture the primary, and potentially mechanistic, effects of the compounds rather than the downstream phenotypic consequences.
(§2) In order to use the Connectivity Map to gain insight into celastrol and gedunin function, we first defined a gene expression signature of celastrol and gedunin activity. The expression signatures of celastrol and gedunin were derived by expression profiling of RNA from LNCaP cells treated with celastrol (1.25 μM), gedunin (20 μM), and vehicle (DMSO) for 6 hr; signatures were defined using comparative marker selection to identify transcripts that distinguished between the compound- and vehicle-treated profiles by the signal-to-noise (SNR) metric. The enrichment of these signatures in the gene expression profiles of the Connectivity Map database was then assessed using a gene enrichment metric, the connectivity score, based on the Kolmogorov-Smirnov statistic (Lamb et al., 2003).
(§3) The celastrol and gedunin signatures were developed from RMA-processed microarray data from LNCaP cells treated with 1.25 μM celastrol or 20 μM gedunin for 6 hours. Comparative marker selection was used to identify markers that distinguished celastrol- and/or gedunin-treated samples from vehicle-treated samples by the median SNR (Golub et al., 1999). The top 50 markers that increased and decreased relative to vehicle-treated controls were used as the signatures.
(§4) The current version of the Connectivity Map data set (build01) contains genome-wide expression data for 453 treatment and vehicle control pairs, representing 164 distinct small molecules. Cell treatments and Affymetrix profiling were predominantly carried out in MCF7 cells with 6 hr treatments as detailed (Table 4) (Lamb et al., 2006). Enrichment of the induced and repressed genes of a signature within each Connectivity Map treatment profile was estimated with a metric based on the Kolmogorov-Smirnov statistic as described (Lamb et al., 2003, Lamb et al., 2006). Connectivity Map data are available at www.broad.mit.edu/cmap/ and GEO (accession number GSE5258).
(§5) For the celastrol and gedunin signatures, RMA-processed data was filtered and thresholded (min fold change=2, min absolute change=50, floor=10, ceiling=16000). Comparative marker selection (GenePattern) was used to identify markers that distinguished celastrol- and/or gedunin-treated samples from vehicle-treated samples by the median SNR. The top fifty markers that increased and decreased relative to vehicle treated controls were used as the celastrol, gedunin, or joint celastrol/gedunin signatures.
(§6) The current version of The Connectivity Map dataset (build01) contains genome-wide expression data for 453 treatment and vehicle control pairs, representing 164 distinct small molecules. Cell treatments were predominantly carried out in the MCF7 cell line for 6 h as detailed in Table 4. Affymetrix profiling was then carried out as described (Lamb et al., 2006).

gedunin signature = assay: Connectivity Map query with the gedunin signature; type: cell-based, human; set-up: key to gedunin score (connectivity score): connectivity score, based on Kolmogorov-Smirnov statistic
Text: as §1, §2, §3, §4, §5, §6

[1] = enrichment of the celastrol signature (1.25 μM celastrol at 6 h, LNCaP) in the compound's Connectivity Map profiles, 6 hr treatment
[2] = enrichment of the gedunin signature (20 μM gedunin at 6 hours, LNCaP) in the compound's Connectivity Map profiles, 6 hr treatment
[3] = rank by celastrol score among 164 Connectivity Map compounds
[4] = rank by gedunin score among 164 Connectivity Map compounds

| Molecule | celastrol score (connectivity score) (celastrol signature; [1]) | gedunin score (connectivity score) (gedunin signature; [2]) | other results |
| --- | --- | --- | --- |
| OCCN1CCN(CCCN2c3ccccc3Sc3ccc(C(F)(F)F)cc32)CC1 [fluphenazine] | 0.481 | 0.34 |  |
| N=C(N)NC(N)=Nc1ccccc1 [phenyl biguanide] | 0 | 0 |  |
| COc1ccc2c(c1)c(CC(=O)O)c(C)n2C(=O)c1ccc(Cl)cc1 [indometacin] | 0.228 | 0.087 |  |
| CN[C@H]1CCc2cc(OC)c(OC)c(OC)c2-c2ccc(OC)c(=O)cc21 [demecolcine] | 0 | 0 |  |
| CCOC(=O)C(C)(C)Oc1ccc(Cl)cc1 [clofibrate] | 0 | 0 |  |
| Nc1ccc(O)c(C(=O)O)c1 [mesalazine] | 0 | 0 |  |
| CC[C@H]1/C=C/C=C/C[C@@H](C)[C@H](O)[C@@](C)(O)C(=O)[C@@H](C)[C@H](O)[C@@H](C)C(=O)[C@@H](C)[C@H](O)[C@@H](C)/C=C/C(=O)O[C@@H]2[C@H](C)[C@H](CC1)O[C@]1(CC[C@H](C)[C@H](C[C@@H](C)O)O1)[C@H]2C [oligomycin] | −0.491 | 0.305 |  |
| [Cl][Co][Cl] [cobalt chloride] | 0.269 | 0.1 | celastrol rank (celastrol signature; [3]): 48; gedunin rank (gedunin signature; [4]): 72 |
| Cc1nc2c(O)cccc2c(=O)[nH]1 [NU-1025] | −0.362 | −0.222 | celastrol rank (celastrol signature; [3]): 156; gedunin rank (gedunin signature; [4]): 152 |
| O=C(O)Cc1ccccc1Nc1c(Cl)cccc1Cl [diclofenac] | −0.197 | −0.165 |  |
| butirosin | 0 | −0.55 | celastrol rank (celastrol signature; [3]): 132; gedunin rank (gedunin signature; [4]): 162 |
| Cc1cccc(Nc2cc(Cl)nc(SCC(=O)O)n2)c1C [pirinixic acid] | 0.226 | 0.055 |  |
| O=C(O)CCc1nc(-c2ccccc2)c(-c2ccccc2)o1 [oxaprozin] | 0.445 | 0.562 |  |
| N=C1C=CC(=C(c2ccc(N)cc2)c2ccc(N)cc2)C=C1 [pararosaniline] | 0.579 | 0.496 |  |
| CCOC(=O)C1=C(C)NC(C)=C(C(=O)OC)C1c1cccc(Cl)c1Cl (centres unmarked) [felodipine] | 0.171 | 0.171 |  |
| NC(=O)C(=O)O [oxamic acid] | −0.654 | 0 |  |
| Oc1cc(O)c2c(c1)OC(c1ccc(O)c(O)c1)C(O)C2 (single isomer, unassigned; (-)) [(−)-catechin] | 0 | 0.457 | celastrol rank (celastrol signature; [3]): 113; gedunin rank (gedunin signature; [4]): 24 |
| CCCCC/C=C/C=C1/C(=O)C=C[C@@H]1C/C=C\CCCC(=O)O [15-delta prostaglandin J2] | 0.76 | 0.565 | celastrol rank (celastrol signature; [3]): 7; gedunin rank (gedunin signature; [4]): 9 |
| C[C@H]1c2cccc(O)c2C(=O)C2=C(O)[C@]3(O)C(=O)C(C(N)=O)=C(O)[C@@H](N(C)C)[C@@H]3[C@@H](O)[C@@H]21 [doxycycline] | 0 | 0 |  |
| NC(=O)c1cccc(N)c1 [3-aminobenzamide] | −0.587 | 0 |  |

| Molecule | celastrol score (connectivity score) (celastrol signature; [1]) | gedunin score (connectivity score) (gedunin signature; [2]) | other results |
| --- | --- | --- | --- |
| O=c1[nH]c2ccccc2c2ccccc12 [phenanthridinone] | 0.429 | −1 | celastrol rank (celastrol signature; [3]): 32; gedunin rank (gedunin signature; [4]): 164 |
| Cc1c(C)c2c(c(C)c1O)CCC(C)(COc1ccc(CC3SC(=O)NC3=O)cc1)O2 (centres unmarked) [troglitazone] | 0.42 | 0.167 |  |
| NCCNCCNCCNCCN [tetraethylenepentamine] | −0.039 | −0.092 |  |
| CC[C@@]1([C@@H]2O[C@@H]([C@H]3O[C@@](O)(CO)[C@H](C)C[C@@H]3C)C[C@@H]2C)CC[C@H]([C@]2(C)CC[C@]3(C[C@H](O)[C@@H](C)[C@@H]([C@@H](C)[C@@H](OC)[C@H](C)C(=O)O)O3)O2)O1 [monensin] | 0.454 | 0 |  |
| CC/C(=C(\c1ccccc1)c1ccc(OCCN(C)C)cc1)c1ccccc1 [tamoxifen] | 0 | 0.216 |  |
| CSc1ccc2c(c1)N(CCC1CCCCN1C)c1ccccc1S2 (centres unmarked) [thioridazine] | 0.308 | 0.522 |  |
| Oc1ccc(C=Cc2cc(O)cc(O)c2)cc1 [resveratrol] | 0.266 | 0.4 |  |
| O=S(=O)([O-])[O-].[Cu+2] [copper sulfate] |  |  | celastrol rank (celastrol signature): 68; celastrol score (connectivity score) (celastrol signature): 0.113; gedunin rank (gedunin signature): 78; gedunin score (connectivity score) (gedunin signature): 0.066 |
| C[C@H](CCC(=O)O)C[C@H](C)C[C@H](C)C(=O)/C=C(\O)[C@H](C)C[C@H](C)C/C=C/[C@@H](C)[C@@H](O)[C@@H](C)[C@@H](O)C[C@@H]1CC[C@@](C)([C@H]2CC[C@@](C)([C@@H](C)O)O2)O1 [ionomycin] | 0.556 | 0.129 |  |
| CC(C)c1ccc2c(c1)c(SC(C)(C)C)c(CC(C)(C)C(=O)O)n2Cc1ccc(Cl)cc1 [MK-886] | 0 | −0.336 | celastrol rank (celastrol signature; [3]): 94; gedunin rank (gedunin signature; [4]): 155 |
| O=C(c1ccc(OCCN2CCCCC2)cc1)c1c(-c2ccc(O)cc2)sc2cc(O)ccc12 [raloxifene] | 0 | 0.292 |  |
| COC(=O)[C@@H]1[C@H]2C[C@H]3c4[nH]c5ccccc5c4CCN3C[C@@H]2CC[C@@H]1O [yohimbine] | 0 | 0 |  |
| COc1cc2c(c(OC)c1OC)-c1ccc(OC)c(=O)cc1[C@@H](NC(C)=O)CC2 [colchicine] | 0.391 | 0.192 |  |
| COc1cc(/C=C(\C#N)C(N)=O)cc(CSc2nc3ccccc3s2)c1O [tyrphostin AG-825] | 0 | 0 | celastrol rank (celastrol signature; [3]): 137; gedunin rank (gedunin signature; [4]): 141 |
| O=S(=O)(c1cccc2cnccc12)N1CCCNCC1 [fasudil] | 0 | 0 |  |
| CN(C)CCCN1c2ccccc2Sc2ccc(Cl)cc21 [chlorpromazine] | 0.08 | 0.218 |  |
| NC(CO)C(=O)NNCc1ccc(O)c(O)c1O (centres unmarked) [benserazide] | 0 | −0.441 |  |
| CC(C)(Sc1cc(C(C)(C)C)c(O)c(C(C)(C)C)c1)Sc1cc(C(C)(C)C)c(O)c(C(C)(C)C)c1 [probucol] | 0.332 | 0 |  |
| CN(CCOc1ccc(CC2SC(=O)NC2=O)cc1)c1ccccn1 (centres unmarked) [rosiglitazone] | 0.098 | 0 |  |
| CC(Cc1ccc(O)c(O)c1)C(C)Cc1ccc(O)c(O)c1 (centres unmarked) [nordihydroguaiaretic acid] | 0.264 | 0.286 |  |
